{
  "source": "patent US20220218652A1",
  "about": "“METHODS OF TREATING CYTOKINE RELEASE SYNDROME” (The General Hospital Corporation, priority 2018, published 2022)",
  "key": {"BV2-CD33wT cells": {"system": "BV2-CD33wT cells", "assay": "Aβ42 uptake by ELISA in BV2 cells stably expressing CD33", "format": "cell-based", "description": "(§1) Naive BV2 microglial cells were treated with DMSO (control) or cromolyn (500 μM) for 16 hours. Afterwards, the cells were incubated with fluoresceraly-labeled A1342 (red) and DMSO or cromolyn for 2 hours. After incubation, the cells were labeled with a plasma membrane dye (PM, green) and imaged. BV2 microglial cells or BV2 cells stably expressing CD33 (BV2-CD33wT) were treated with DMSO or different concentrations of cromolyn for 16 hours. Then, cells were incubated with soluble untagged Aβ42 and DMSO or cromolyn for 2 hours and collected for ELBA analysis."}, "TgSOD1 mice [1]": {"system": "TgSOD1 mice", "assay": "Meso Scale Discovery multi-spot cytokine assay, plasma of TgSOD1 mice", "format": "in vivo", "conditions": "6.3 mg/kg i.p.", "description": "(§2) Cromolyn. sodium was provide by AZ Therapies and dissolved in PBS. 100 mM solution was used for in vivo experiments. Dulbecco's PBS was used to dilute the solution for intraperitoneal injections for a final dose of 6.3 mg/kg.\n(§3) 149 male and female age- and litter-matched transgenic TgSOD1^G93A and wild-type WtSOD1^G93A mice were used with the following breakdown: Females (19 WtSOD1-Vehicle, 17 WtSOD1-Cromolyn, 19 TgSOD1-Vehicle, and 17 TgSOD1-Cromolyn) and Males (18 WtSOD1-Vehicle, 21 WtSOD1-Cromolyn, 21 TgSOD1-Vehicle, 17 TgSOD1-Cromolyn). The mice received once daily injections of either vehicle or cromolyn sodium (6.3 mg/kg, […] i.p.) 5 days per week starting at P60 until euthanasia.\n(§4) B6SJL-Tg (SOD1 G93A)1Gur/J transgenic male mice were obtained from Jackson Laboratory and bred with C57BL/6 female mice to obtain wild-type WtSOD1 and mutant transgenic TgSOD1^G93A-expressing mice. To determine mouse genotype, RNA extraction and complimentary DNA (cDNA) synthesis was performed from tail biopsies acquired at postnatal day 28-40 followed by quantitative real-time PCR (qRT-PCR) using primers for the mutant G93A SOD1 gene (GGGAAGCTGTTGTCCCA AG and […])(SEQ ID NO: 1 and SEQ ID NO: 2, respectively). Both age- and litter-matched WtSOD1 and TgSOD1 male. and female mice were used for all studies as described below.\nSpinal cord frozen tissue was homogenized in ice-cold RIPA buffer (Thermo Fisher Scientific, #8990) supplemented with protease inhibitor cocktail (Thermo Fisher Scientific, #78430). Samples were centrifuged at 45,000 g for 30 minutes at 4° C. using an Optima TL ultracentrifuge and a TLA 120.2 rotor (Beckman Coulter). Expression levels of the cytokines were assessed in the supernatants derived from spinal cord tissue or in the plasma, using an electrocheiniluminescence-based multi-array method and MESO Quickplex SQ 120 system (MSD, Rockville, Md., USA). The 96-well V-FLEX Proinflammatory Mouse 1 Kit (Meso Scale Discovery, #K15048D) was used to measure simultaneously IL-1β, IL-2, IL-5, IL-6, IL-10, and TNFα, following the manufacturer's instructions. Briefly, samples were diluted in the calibrator and added to the plate coated with an array of cytokine capture antibodies. Samples were incubated. in the plate for 2 hours with shaking at room temperature, followed by washes with the wash buffer provided in the kit. The detection antibody solution was added to each well and the plate was incubated for 2 hours. The plate was washed with the wash buffer and the 2× Read Buffer T was added. The signal was immediately measured on a MESO QuickIlex SQ 120 instrument and was analyzed using the DISCOVERY WORKBENCH 4.0 software (Meso Scale Diagnostics, LLC., Rockville, Md., USA). Protein concentrations in the supernatants or the plasma samples were measured using the Pierce BCA protein assay kit (Thermo Scientific). Values in the graphs represent levels of cytokines normalized to the corresponding protein concentrations.\nData are presented as median values. Box plots are used for graphical representation of population data with the central line representing the median, the edges representing the interquartile ranges, and the whiskers representing 10-90th percentiles. Data are also represented as medians±interquartile ranges or percent values. Sample sizes are included in the figure legends. Comparisons for unrelated samples were performed using a two-way ANOVA followed by Tukey's or Sidak's multiple comparison's test or a one-way ANOVA test followed by Tukey's multiple comparison post-tests at a significance level (a) of 0.05. For p<0.05 and >0.00001, exact P values (two-tailed) are reported.\nAdditionally, levels of L-1β, IL-2, IL-5, IL-6, IL-10, and TNFα were assessed in the plasma of a subset of mice (Females: 13 WtSOD1-Vehicle, 15 WtSOD1-Cromolyn, 6 TgSOD1-Vehicle, and 6 TgSOD1-Cromolyn; and Males: 14 WtSOD1-Vehicle, 10 WtSOD1-Cromolyn, 6 TgSOD1-Vehicle, 3 TgSOD1-Cromolyn)."}, "BV2 microglial cells": {"system": "BV2 microglial cells", "assay": "Aβ42 uptake by ELISA and confocal microscopy in naive BV2 microglial cells", "format": "cell-based", "description": "as §1"}, "TgSOD1 mice [2]": {"system": "TgSOD1 mice", "assay": "Meso Scale Discovery multi-spot cytokine assay, spinal cord lysates of TgSOD1 mice", "format": "in vivo", "conditions": "TgSOD1-Cromolyn vs TgSOD1-Vehicle; cromolyn sodium 6.3 mg/kg i.p. once daily, 5 days per week from P60; p=0.0273", "description": "as §2, §3\nas §4, with “below. […]” for “below.”"}, "[3]": {"conditions": "16 hours pretreatment, then 2 hours with Aβ42, vs vehicle (DMSO), ELISA"}, "[4]": {"conditions": "different concentrations of cromolyn"}},
  "data": [
    {"compound": "O=C(O)c1cc(=O)c2c(OCC(O)COc3cccc4oc(C(=O)O)cc(=O)c34)cccc2o1", "note": "[cromolyn, cromolyn sodium]", "values": [
      {"measurement": "internalized Aβ42 in BV2-CD33wT cells", "setting": "BV2-CD33wT cells; [3]", "result": "increased levels of internalized Aβ42"},
      {"measurement": "dose dependence of Aβ42 uptake modulation, BV2-CD33wT cells", "setting": "BV2-CD33wT cells; [4]", "result": "dose-dependent effect"},
      {"measurement": "IL-10 level in plasma", "setting": "TgSOD1 mice [1]; TgSOD1-Cromolyn vs TgSOD1-Vehicle, p=0.0095", "result": "significantly decreased"},
      {"measurement": "IL-2 level in plasma", "setting": "TgSOD1 mice [1]; TgSOD1-Cromolyn vs TgSOD1-Vehicle, p=0.0211", "result": "significantly decreased"},
      {"measurement": "IL-6 level in plasma", "setting": "TgSOD1 mice [1]; TgSOD1-Cromolyn vs TgSOD1-Vehicle, p=0.0273", "result": "significantly decreased"},
      {"measurement": "TNFα level in plasma", "setting": "TgSOD1 mice [1]; TgSOD1-Cromolyn vs TgSOD1-Vehicle, p=0.110", "result": "trend towards a decrease"},
      {"measurement": "IL-1β level in plasma", "setting": "TgSOD1 mice [1]; between groups", "result": "no statistically significant difference"},
      {"measurement": "IL-5 level in plasma", "setting": "TgSOD1 mice [1]; between groups", "result": "no statistically significant difference"},
      {"measurement": "Aβ42 uptake in naive BV2 microglial cells", "setting": "BV2 microglial cells; [3]", "result": "increased Aβ42 uptake"},
      {"measurement": "dose dependence of Aβ42 uptake modulation, naive BV2 cells", "setting": "BV2 microglial cells; [4]", "result": "dose-dependent effect"},
      {"measurement": "TNFα level in spinal cord", "setting": "TgSOD1 mice [2]", "result": "significant decrease"}
    ]}
  ]
}
